Results as given in patent US8686150B2 (Sanofi, priority 2011, dated 2014).

molecular target: T1, human full-length recombinant PKC βII (Homo sapiens, UniProt P05771); assay: Determination of PKC βII inhibition (Caliper mobility-shift kinase assay, Fluorescein-RFARKGSLRQKNV peptide substrate); format: biochemical; conditions: example compounds at a final concentration of 1.14 μM (±0.15 μM)
T1 construct: Active human full-length recombinant PKC βII; purchased Invitrogen GmbH, Darmstadt, Germany
Summary of the method: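 Compounds were tested at 1.14 μM final. Enzyme was activated by PS, DAG and CaCl2 in Hepes pH 7.4 with MgCl2, with substrate 3 μM and ATP 120 μM as pre-mix concentrations. After 60 min at 32 °C and an EDTA stop, Caliper separation gave fractional turnover, which was normalised to no-compound and no-enzyme controls.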

T1 sequence (P05771 1-673 isoform P05771-2): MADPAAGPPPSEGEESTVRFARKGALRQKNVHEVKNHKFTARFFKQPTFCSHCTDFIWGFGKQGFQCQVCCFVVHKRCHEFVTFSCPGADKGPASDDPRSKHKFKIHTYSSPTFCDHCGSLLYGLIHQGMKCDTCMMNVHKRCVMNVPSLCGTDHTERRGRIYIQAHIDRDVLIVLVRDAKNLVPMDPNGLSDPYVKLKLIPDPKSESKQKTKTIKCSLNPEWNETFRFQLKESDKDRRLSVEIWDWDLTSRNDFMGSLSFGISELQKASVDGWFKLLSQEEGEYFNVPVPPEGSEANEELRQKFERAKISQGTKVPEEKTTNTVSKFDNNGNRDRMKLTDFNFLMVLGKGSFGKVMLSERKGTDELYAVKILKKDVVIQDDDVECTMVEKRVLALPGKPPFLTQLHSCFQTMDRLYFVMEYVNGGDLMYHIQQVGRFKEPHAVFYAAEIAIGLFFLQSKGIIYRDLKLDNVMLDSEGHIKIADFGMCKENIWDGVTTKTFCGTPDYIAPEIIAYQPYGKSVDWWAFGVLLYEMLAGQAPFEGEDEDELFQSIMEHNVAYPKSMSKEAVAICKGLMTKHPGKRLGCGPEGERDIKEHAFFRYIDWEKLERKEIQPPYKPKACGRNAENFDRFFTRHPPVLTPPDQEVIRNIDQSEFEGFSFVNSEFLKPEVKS

Row | SMILES | inhibition at 1.14 µM [%]
1 | Cc1n[nH]c2nc(-c3ccc(O)cc3)cc(C(=O)NC3CCCC(N)C3)c12 (centres unmarked) [Example 254, 6-(4-Hydroxy-phenyl)-3-methyl-1H-pyrazolo[3,4-b]pyridine-4-carboxylic acid (3-amino-cyclohexyl)-amide] | 80
2 | Cc1n[nH]c2nc(-c3ccc(O)cc3)cc(C(=O)N3CCC4(CC3)CNC4)c12 [Example 255, (2,7-Diaza-spiro[3.5]non-7-yl)-[6-(4-hydroxy-phenyl)-3-methyl-1H-pyrazolo[3,4-b]pyridin-4-yl]-methanone] | 90
3 | Cc1n[nH]c2nc(-c3ccc(O)cc3)cc(C(=O)N3CCC4(CCNC4)C3)c12 (centres unmarked) [Example 256, (2,7-Diaza-spiro[4.4]non-2-yl)-[6-(4-hydroxy-phenyl)-3-methyl-1H-pyrazolo[3,4-b]pyridin-4-yl]-methanone] | 86
4 | Cc1n[nH]c2nc(-c3ccc(O)cc3)cc(C(=O)N3CCC4(CCNC4)CC3)c12 [Example 257, (2,8-Diaza-spiro[4.5]dec-8-yl)-[6-(4-hydroxy-phenyl)-3-methyl-1H-pyrazolo[3,4-b]pyridin-4-yl]-methanone] | 82
5 | Cc1n[nH]c2nc(-c3ccc(O)cc3)cc(C(=O)N3CCOC4(CCCNC4)C3)c12 (centres unmarked) [Example 258, [6-(4-Hydroxy-phenyl)-3-methyl-1H-pyrazolo[3,4-b]pyridin-4-yl]-(1-oxa-4,8-diaza-spiro[5.5]undec-4-yl)-methanone] | 78
6 | Cc1n[nH]c2nc(-c3ccc(O)cc3)cc(C(=O)N3CCC4(CC3)CNCCO4)c12 [Example 259, [6-(4-Hydroxy-phenyl)-3-methyl-1H-pyrazolo[3,4-b]pyridin-4-yl]-(1-oxa-4,9-diaza-spiro[5.5]undec-9-yl)-methanone] | 29
7 | Cc1n[nH]c2nc(-c3ccc(O)cc3)cc(C(=O)N3CCC4(CCNCC4)C3)c12 [Example 260, (2,8-Diaza-spiro[4.5]dec-2-yl)-[6-(4-hydroxy-phenyl)-3-methyl-1H-pyrazolo[3,4-b]pyridin-4-yl]-methanone] | 78
8 | Cc1n[nH]c2nc(-c3ccc(O)cc3)cc(C(=O)N3CCOC4(CCNCC4)C3)c12 [Example 261, [6-(4-Hydroxy-phenyl)-3-methyl-1H-pyrazolo[3,4-b]pyridin-4-yl]-(1-oxa-4,9-diaza-spiro[5.5]undec-4-yl)-methanone] | 70
9 | Cc1n[nH]c2nc(-c3ccc(O)cc3)cc(C(=O)N3CCCC4(CNCCO4)C3)c12 (centres unmarked) [Example 262, [6-(4-Hydroxy-phenyl)-3-methyl-1H-pyrazolo[3,4-b]pyridin-4-yl]-(1-oxa-4,8-diaza-spiro[5.5]undec-8-yl)-methanone] | 59
10 | Cc1n[nH]c2nc(-c3ccc(O)cc3)cc(C(=O)N3CCCC4(CCNC4)C3)c12 (centres unmarked) [Example 263, (2,7-Diaza-spiro[4.5]dec-7-yl)-[6-(4-hydroxy-phenyl)-3-methyl-1H-pyrazolo[3,4-b]pyridin-4-yl]-methanone] | 65
11 | Cc1n[nH]c2nc(-c3ccc(O)cc3)cc(C(=O)N3CCC(N)C3)c12 (centres unmarked) [Example 264, (3-Amino-pyrrolidin-1-yl)-[6-(4-hydroxy-phenyl)-3-methyl-1H-pyrazolo[3,4-b]pyridin-4-yl]-methanone] | 88
12 | CC(=O)N1CCN(C(=O)c2cc(-c3ccc(O)cc3)nc3[nH]nc(C)c23)CC1 [Example 265, 1-{4-[6-(4-Hydroxy-phenyl)-3-methyl-1H-pyrazolo[3,4-b]pyridine-4-carbonyl]-piperazin-1-yl}-ethanone] | 87
13 | Cc1n[nH]c2nc(-c3ccc(O)cc3)cc(C(=O)N3CC(=O)N4CCCCC4C3)c12 (centres unmarked) [Example 266, 2-[6-(4-Hydroxy-phenyl)-3-methyl-1H-pyrazolo[3,4-b]pyridine-4-carbonyl]-octahydro-pyrido[1,2-a]pyrazin-4-one] | 39
14 | Cc1ccc(C(=O)N2CCN(C(=O)c3cc(-c4ccc(O)cc4)nc4[nH]nc(C)c34)CC2)cc1 [Example 267, [6-(4-Hydroxy-phenyl)-3-methyl-1H-pyrazolo[3,4-b]pyridin-4-yl]-[4-(4-methyl-benzoyl)-piperazin-1-yl]-methanone] | 32
15 | CCN1CC2CC1CN2C(=O)c1cc(-c2ccc(O)cc2)nc2[nH]nc(C)c12 (centres unmarked) [Example 268, (5-Ethyl-2,5-diaza-bicyclo[2.2.1]hept-2-yl)-[6-(4-hydroxy-phenyl)-3-methyl-1H-pyrazolo[3,4-b]pyridin-4-yl]-methanone] | 80
16 | Cc1n[nH]c2nc(-c3ccc(O)cc3)cc(C(=O)N3CCCN(C)CC3)c12 [Example 269, [6-(4-Hydroxy-phenyl)-3-methyl-1H-pyrazolo[3,4-b]pyridin-4-yl]-(4-methyl-[1,4]diazepan-1-yl)-methanone] | 87

Row | SMILES | inhibition at 1.14 µM [%]
17 | Cc1n[nH]c2nc(-c3ccc(O)cc3)cc(C(=O)NCC(C)(C)CN)c12 [Example 270, 6-(4-Hydroxy-phenyl)-3-methyl-1H-pyrazolo[3,4-b]pyridine-4-carboxylic acid (3-amino-2,2-dimethyl-propyl)-amide] | 87
18 | Cc1n[nH]c2nc(-c3ccc(O)cc3)cc(C(=O)N3CCN(CCS(C)(=O)=O)CC3)c12 [Example 271, [6-(4-Hydroxy-phenyl)-3-methyl-1H-pyrazolo[3,4-b]pyridin-4-yl]-[4-(2-methanesulfonyl-ethyl)-piperazin-1-yl]-methanone] | 66
19 | Cc1n[nH]c2nc(-c3ccc(O)cc3)cc(C(=O)N(C)C3CCN(C)CC3)c12 [Example 272, 6-(4-Hydroxy-phenyl)-3-methyl-1H-pyrazolo[3,4-b]pyridine-4-carboxylic acid methyl-(1-methyl-piperidin-4-yl)-amide] | 85
20 | CCN1CCCC(NC(=O)c2cc(-c3ccc(O)cc3)nc3[nH]nc(C)c23)C1 (centres unmarked) [Example 273, 6-(4-Hydroxy-phenyl)-3-methyl-1H-pyrazolo[3,4-b]pyridine-4-carboxylic acid (1-ethyl-piperidin-3-yl)-amide] | 83
21 | Cc1n[nH]c2nc(-c3ccc(O)cc3)cc(C(=O)N3C[C@]4(C)CN(C)C[C@](C)(C3)C4O)c12 (stereo partly drawn) [Example 274, [6-(4-Hydroxy-phenyl)-3-methyl-1H-pyrazolo[3,4-b]pyridin-4-yl]-((1S,5R)-9-hydroxy-1,5,7-trimethyl-3,7-diaza-bicyclo[3.3.1]non-3-yl)-methanone] | 88
22 | Cc1n[nH]c2nc(-c3ccc(O)cc3)cc(C(=O)NC3CCCN(C)C3)c12 (centres unmarked) [Example 275, 6-(4-Hydroxy-phenyl)-3-methyl-1H-pyrazolo[3,4-b]pyridine-4-carboxylic acid (1-methyl-piperidin-3-yl)-amide] | 89
23 | Cc1n[nH]c2nc(-c3ccc(O)cc3)cc(C(=O)NC3CC(C)(C)N(C)C(C)(C)C3)c12 [Example 276, 6-(4-Hydroxy-phenyl)-3-methyl-1H-pyrazolo[3,4-b]pyridine-4-carboxylic acid (1,2,2,6,6-pentamethyl-piperidin-4-yl)-amide] | 66
24 | CC(=O)N1CCC(NC(=O)c2cc(-c3ccc(O)cc3)nc3[nH]nc(C)c23)CC1 [Example 277, 6-(4-Hydroxy-phenyl)-3-methyl-1H-pyrazolo[3,4-b]pyridine-4-carboxylic acid (1-acetyl-piperidin-4-yl)-amide] | 35
25 | Cc1n[nH]c2nc(-c3ccc(O)cc3)cc(C(=O)NCC3CCC(=O)N3)c12 (centres unmarked) [Example 278, 6-(4-Hydroxy-phenyl)-3-methyl-1H-pyrazolo[3,4-b]pyridine-4-carboxylic acid (5-oxo-pyrrolidin-2-ylmethyl)-amide] | 68
26 | Cc1n[nH]c2nc(-c3ccc(O)cc3)cc(C(=O)NC3CCN(C4CCCCC4)CC3)c12 [Example 279, 6-(4-Hydroxy-phenyl)-3-methyl-1H-pyrazolo[3,4-b]pyridine-4-carboxylic acid (1-cyclohexyl-piperidin-4-yl)-amide] | 78
27 | Cc1n[nH]c2nc(-c3ccc(O)cc3)cc(C(=O)N3CCN(C(=O)C4CCCO4)CC3)c12 (centres unmarked) [Example 280, [6-(4-Hydroxy-phenyl)-3-methyl-1H-pyrazolo[3,4-b]pyridin-4-yl]-[4-(tetrahydro-furan-2-carbonyl)-piperazin-1-yl]-methanone] | 88
28 | CCN1CCCN(C(=O)c2cc(-c3ccc(O)cc3)nc3[nH]nc(C)c23)CC1 [Example 281, (4-Ethyl-[1,4]diazepan-1-yl)-[6-(4-hydroxy-phenyl)-3-methyl-1H-pyrazolo[3,4-b]pyridin-4-yl]-methanone] | 85
29 | Cc1n[nH]c2nc(-c3ccc(O)cc3)cc(C(=O)N3CC4CCCN4CC3c3ccccc3)c12 (centres unmarked) [Example 282, [6-(4-Hydroxy-phenyl)-3-methyl-1H-pyrazolo[3,4-b]pyridin-4-yl]-(3-phenyl-hexahydro-pyrrolo[1,2-a]pyrazin-2-yl)-methanone] | 73
30 | COC(=O)C1(N)CCN(C(=O)c2cc(-c3ccc(O)cc3)nc3[nH]nc(C)c23)CC1 [Example 283, 4-Amino-1-[6-(4-hydroxy-phenyl)-3-methyl-1H-pyrazolo[3,4-b]pyridine-4-carbonyl]-piperidine-4-carboxylic acid methyl ester] | 45
31 | Cc1n[nH]c2nc(-c3ccc(O)cc3)cc(C(=O)N3CC4CCCN4CC3C)c12 (centres unmarked) [Example 284, [6-(4-Hydroxy-phenyl)-3-methyl-1H-pyrazolo[3,4-b]pyridin-4-yl]-(3-methyl-hexahydro-pyrrolo[1,2-a]pyrazin-2-yl)-methanone] | 66
32 | Cc1n[nH]c2nc(-c3ccc(O)cc3)cc(C(=O)N3CC4CCCCN4CC3C)c12 (centres unmarked) [Example 285, [6-(4-Hydroxy-phenyl)-3-methyl-1H-pyrazolo[3,4-b]pyridin-4-yl]-(3-methyl-octahydro-pyrido[1,2-a]pyrazin-2-yl)-methanone] | 76
